According to patent US20180028516A1, “METHODS AND DEVICES FOR THE TREATMENT OF OCULAR DISEASES IN HUMAN SUBJECTS” (CLEARSIDE BIOMEDICAL, INC., priority 2012, published 2018):
“Also recorded” adds a separate entry of the source.

Key:
[1] = Safety endpoints (mortality, body weights, ocular observations, IOP) in the rabbit uveitis study (Example 11); assay type: in vivo, New Zealand White rabbits
Description: In this study, the effects of pretreatment with suprachoroidal or intravitreal triamcinolone acetonide (TA) in a subretinal endotoxin-induced model of posterior segment uveitis in New Zealand White rabbits was evaluated.
On Day 1, female rabbits (4 eyes/group) received a single unilateral injection of vehicle or 4 mg TA (Triesence®, 40 mg/mL suspension, Alcon Labs) into the suprachoroidal space (SCS) using a 33 g 750 μm microneedle, or a 4 mg TA IVT injection using a standard 30 g needle. On Day 6, each animal received a single unilateral subretinal injection of lipopolysaccharide (LPS, 20-30 μL, 203 μg/g of 1% sodium hylauronate) to induce ocular inflammation in the treated eye. Animals were monitored for 22 days following dose administration. Endpoints included body weights, ocular observations, slit lamp biomicroscopy with McDonald-Shadduck scoring and photography, indirect ophthalmoscopy, fundus photography, intraocular pressure (IOP), and histopathology. A summary of the study design is shown below, in Table 6.

[2] = Intraocular pressure after SCS TA (Example 9); assay type: in vivo, New Zealand White rabbit; conditions: 3.2 or 5.2 mg TA SCS
Description: In this study, the ocular tolerability and toxicokinetics of suprachoroidal administration of triamcinolone acetonide (TA) using a microneedle in a GLP study in the New Zealand White rabbit.
On Day 0, New Zealand White (NZW) rabbits were administered a single bilateral supraehoroidal injection of vehicle, 3.2 mg (80 μL) or 5.2 mg (130 μL) of TA (Triesence®, Alcoa labs) using a 33 g 750 μm microneedle. Clinical observations, slit lamp biomicroscopy with McDonald-Shadduck scoring, intraocular pressure assessment (IOP), electroretinography (ERG), and systemic exposure were assessed up to 26 weeks post-dose. Animals were sacrificed on Day 1, Week 13, and Week 26 for macroscopic observations, ocular toxicokinetics, and ocular histopathology.

[3] = Ocular and systemic pharmacokinetics of TA, SCS vs IVT (Example 10); assay type: in vivo, New Zealand White rabbit
Description: (§1) In this study, the ocular and systemic pharmacokinetics (PK) of triar cinolone acetonide (TA) in the New Zealand White rabbit following intravitreal […] injection or administration into the suprachoroidal space (SCS) using a hollow rnicroneedle were evaluated.
(§2) On Day 0, male rabbits (5 per group) received a single bilateral administration of 4 mg TA (100 μL Triesence triamcinolone formulationAlcon Labs) via SCS injection using a 33 g 750 μm microneedle or an IVT injection using a standard 30 g needle. The study design is shown below in Table 4.
(§3) Clinical observations, body weights, and intraocular pressure (IOP) were assessed up to 13 weeks post-dose. Plasma and ocular matrixes (aqueous humor (AH), lens, iris/ciliary body (ICB), vitreous humor (VH), sclera/choroid (SC), and retina) were sampled on Days 1, 14, 28, 56, and 91. Plasma (LLOQ 0.5 ng/mL) and ocular matrixes (LLOQ 2 -15 ng/mL) were analyzed using LC-MS/MS, and resulting data were assessed for noncompartmentat PK parameters.

[4] = Clinical observations and tolerability, SCS vs IVT TA (Example 10); assay type: in vivo, New Zealand White rabbit
Description: as §1, §2, §3

[5] = tested on: model of acute posterior uveitis; experiment: Porcine model of acute posterior uveitis, Hackett/McDonald scoring (Example 12); assay type: in vivo, pigs
Description: In this study, the effects of microneedle injection of triamcinolone acetonide (TA) into the suprachoroidal space (SCS) were compared to the effects of intravitreal (IVT) TA injection in a model of acute posterior uveitis.
Ten weanling pigs had IVT injection with BSS or lipopolysaccharide (LPS) followed 24 hours later with an injection of 0.2 mg or 2.0 mg of TA into the SCS or by IVT. The SCS was accessed using hollow microneedles provided herein. A measurement of each eye under the Hackett/McDonald scoring system was performed on −1, 0, and 3 days after treatment. Pigs were then euthanized, aqueous and vitreous humor collected for cell counts and protein levels, and the eyes were processed for histopathology.

## CC1(C)O[C@@H]2C[C@H]3[C@@H]4CCC5=CC(=O)C=C[C@]5(C)[C@@]4(F)[C@@H](O)C[C@]3(C)[C@]2(C(=O)CO)O1 [TA, triamcinolone acetonide]
[1]; 4 mg TA SCS
  IOP after SCS TA administration: no significant increase
[1]; 4 mg TA SCS or IVT
  effects on mortality, body weights, or ocular observations: no test article- or administration-related effects
[2]
  effect on IOP: No effect
[3]; 4 mg TA
  increase of AUC in VH, IVT TA compared with SCS TA: 52 fold
  increase of AUC in aqueous Humor, IVT TA compared with SCS TA: 63 fold
  increase of AUC in iris/ciliary body, IVT TA compared with SCS TA: 44 fold
  increase of AUC in lens, IVT TA compared with SCS TA: 690 fold
  increase of AUC in the sclera/choroid, SCS TA compared with IVT TA: 11 fold
  increase of Cmax in VH, IVT TA compared with SCS TA: 4 fold
  increase of Cmax in aqueous Humor, IVT TA compared with SCS TA: 250 fold
  increase of Cmax in iris/ciliary body, IVT TA compared with SCS TA: 24 fold
  increase of Cmax in lens, IVT TA compared with SCS TA: 290 fold
  increase of Cmax in the sclera/choroid, SCS TA compared with IVT TA: 10 fold
[3]; Aqueous Humor, IVT 4 mg TA
  AUC0-t: 8,500 ng · day/mL
  Clast: 42 ng/mL
  Cmax: 269 ng/mL
  Tlast: 91 days
  Tmax: 336 h
[3]; Aqueous Humor, SCS 4 mg TA
  Clast: 16 ng/mL
  Cmax: 16 ng/mL
  Tlast: 28 days
[3]; Iris/Ciliary body, IVT 4 mg TA
  AUC0-t: 40,900,000 ng · day/mL
  Clast: 463,000 ng/mL
  Cmax: 1,260,000 ng/mL
  Tlast: 91 days
  Tmax: 24 h
[3]; Iris/Ciliary body, SCS 4 mg TA
  AUC0-t: 1,190,000 ng · day/mL
  AUC0-∞: 1,190,000 ng · day/mL
  Clast: 247 ng/mL
  Cmax: 50,200 ng/mL
  T1/2: 220 h
  Tlast: 91 days
  Tmax: 24 h
[3]; Lens, IVT 4 mg TA
  AUC0-t: 12,600,000 ng · day/mL
  Clast: 40,300 ng/mL
  Cmax: 540,000 ng/mL
  Tlast: 91 days
  Tmax: 336 h
[3]; Lens, SCS 4 mg TA
  AUC0-t: 27,400 ng · day/mL
  Clast: 9 ng/mL
  Cmax: 1,870 ng/mL
  Tlast: 91 days
  Tmax: 24 h
[3]; Retina, IVT 4 mg TA
  AUC0-t: 25,100,000 ng · day/mL
  AUC0-∞: 26,300,000 ng · day/mL
  Clast: 41,500 ng/mL
  Cmax: 781,000 ng/mL
  T1/2: 504 h
  Tlast: 91 days
  Tmax: 336 h
[3]; Retina, SCS 4 mg TA
  AUC0-t: 24,600,000 ng · day/mL
  Clast: 2,600 ng/mL
  Cmax: 907,000 ng/mL
  Tlast: 91 days
  Tmax: 24 h
[3]; SCS and IVT, 4 mg TA
  quantifiability of TA in ocular matrixes: quantifiable in all ocular matrixes through Day 91
[3]; Sclera/choroid, IVT 4 mg TA
  AUC0-t: 8,640,000 ng · day/mL
  AUC0-∞: 10,300,000 ng · day/mL
  Clast: 27,100 ng/mL
  Cmax: 235,000 ng/mL
  T1/2: 1030 h
  Tlast: 91 days
  Tmax: 336 h
[3]; Sclera/choroid, SCS 4 mg TA
  AUC0-t: 101,000,000 ng · day/mL
  AUC0-∞: 101,000,000 ng · day/mL
  Clast: 34,000 ng/mL
  Cmax: 2,860,000 ng/mL
  T1/2: 264 h
  Tlast: 91 days
  Tmax: 24 h
[3]; Vitreous Humor, IVT 4 mg TA
  AUC0-t: 77,600,000 ng · day/mL
  AUC0-∞: 85,500,000 ng · day/mL
  Clast: 218,000 ng/mL
  Cmax: 1,640,000 ng/mL
  T1/2: 600 h
  Tlast: 91 days
  Tmax: 24 h
[3]; Vitreous Humor, SCS 4 mg TA
  AUC0-t: 3,460,000 ng · day/mL
  Clast: 10 ng/mL
  Cmax: 287,000 ng/mL
  Tlast: 91 days
  Tmax: 24 h
[3]; either route (IVT or SCS), 4 mg TA
  systemic exposure: minimal
[3]; peaked on Day 1, both groups (SCS and IVT, 4 mg TA)
  TA peak concentration in plasma: 4 ng/mL
[4]; SCS and IVT, 4 mg TA
  adverse effects related to treatment or method of administration: no observed adverse effects
[4]; both IVT and SCS TA, 4 mg, albino rabbit
  tolerability: well tolerated
[5]; 0.2 mg SCS vs 2 mg IVT
  dose of TA administered to the SCS giving a reduction in inflammation within 3 days, as share of the dose required intravitreally: 10%
[5]; 2 mg TA SCS after LPS, vs vehicle
  inflammatory response (mean Hackett/McDonald ocular scores): significant reduction; also recorded: significantly reduces
